# Assays:
# [1] = tested on: tTGase and Factor XIIIa expression in knee articular cartilage and medial meniscus; assay: Immunohistochemistry of cartilage organ culture; format: cell-based, human; details: organ culture 48 hours
# Experimental: Articular cartilage and medial menisci from normal donors were studied in cartilage organ culture in media supplemented with 1% FCS and 1% L-glutamine, as described in the Methods, following 48 hours of treatment with TGFβ 10 ng/ml, IL-1β (1 ng/ml), or medium alone.
# Immunohistochemistry was performed as previously described in detail (30,33,34). In brief, immunohistochemical sections (5 microns) were pretreated with bovine testicular hyaluronidase (0.5 mg/ml at 37° C. for 30 min) and incubated in 5% normal goat or rabbit serum for 20 min prior to avidin/biotin peroxidase staining by the ABC method. Hematoxilin was used as the counterstain. Biotinylated anti-rabbit or anti-goat antibodies served as secondary antibodies. Levamisole was added to block endogenous alkaline phosphatase (AP). Negative controls were nonimmune rabbit or goat serum as a substitute for primary antibody.
# Meniscal cells were taken from tissue slices removed from the central regions of the medial and lateral menisci. Where indicated, meniscal organ culture was performed by incubating these slices for b 48 hours in DMEM high glucose containing 1% FCS and 1% L-glutamine (and articular cartilage organ culture performed in the same manner, where indicated). Otherwise, we minced meniscal tissue with a scalpel, incubated in DMEM high glucose containing 2 mg/ml clostridial collagenase, 5% FCS, 1% L-glutamine, 100 units/ml Penicillin and 50 μg/ml Streptomycin (Omega Scientific, Tarzana, Calif.), and incubated on a gyratory shaker at 37° C. until the tissue fragments were digested. Residual multicellular aggregates were removed by sedimentation (1,000×g), and cells were washed three times in DMEM containing 5% FCS.
# [2] = tested on: TGase activity in knee meniscal cells and TC28 cells; assay: TGase activity in nonadherent nodule-forming culture on polyHEME; format: cell-based, human; details: polyHEME plates, β-glycerophosphate, ascorbate, dexamethasone, up to 10 days; cytokines 10 ng/ml or TGase transfection
# Experimental: FIG. 10 refers to effects of direct Factor XIIIa and tTGase expression on TGase activity in meniscal cells and TC28 cells. Human chondrocytic TC28 cells or normal knee meniscal cells (5×10^5), were plated in 60 mm dishes and allowed to adhere overnight, as described in the Methods. Two μg of plasmid DNAs or empty plasmid vector were then transfected, performed as described above. After 24 hrs, the cells were removed from the dishes and plated on polyHEME-coated tissue culture plates and media supplemented with 10 mM P-glycerophosphate, ascorbatte (50 μg/ml) and dexamethasone (10^−8 M), which stimulated the cells to form mineralizing nodules for 3-10 days in culture. For comparison purposes, cells were treated only with IL-1 or TGFβ (10 ng/ml each) for up to 10 days. At each time point designated, the cell nodules were collected and lysed, and TGase activity then determined as previously described. For meniscal cells, data pooled from 6 donors studied in triplicate. For TC28 cells, n=6 each, studied in triplicate. Statistics not indicated on this graph, but p<0.05 for the increases in TGase activities in response to both Factor XIIIa and tTGase transfection, and for IL-1 treatment, at all time points.
# TGase activity was measured by modifications to a previously described method (35). Specifically, we coated 96 well ImmunoModule plates (Nunc, Rochester, N.Y.) with 200 μl of 20 mg/ml N,N-dimethylcasein for 1 hr at 23° C. The N,N-dimethylcasein was removed and nonspecific protein binding was blocked by adding 3% BSA in 100 mM Tris, pH 8.5, 150 mM NaCl, 0.05% Tween-20 (TBST) to each well for an additional 1 hr at 23° C. Then, aliquots of 5 μg of total cellular protein from meniscal or TC28 cells that had been lysed and sonicated (in 5 mM Tris HCl, 0.25 M sucrose, 0.2 mM MgSO4, 2 mM DTT, 0.4 mM PMSF, 0.4% Triton X100, pH 7.5), were added to the plate in triplicate. To measure TGase in extracts of whole menisci, 50 mg dry weight of tissue from the central zone of each medial meniscus was used as the source (after solubilization and sonication) for aliquots of 5 μg of soluble protein. Fifty μl of solution A (100 mM Tris, pH 8.5 and 20 mM CaCl2) was added to all samples for TGase assay, followed by the addition of 50 μl of solution B (100 mM Tris, pH 8.5, 40 mM DTT and freshly added 2 mM 5-(Biotinamido) pentylamine (BP)). The plates were incubated for 1 hr at 37° C. The wells were washed once with TBST containing 1 mM EDTA and then three times with TBST. […] Readings at OD410 were taken over 15 minutes. […] TGase activity was designated as the amount of BP incorporated into casein (per μg cellular DNA, determined chromogenically following precipitation in perchlorate (28), or, where indicated, per μg protein, determined as previously described (28)). […]
substance,measurement,setting,value
IL-1β: Human recombinant IL-1β purchased from R&D Systems,tTGase and Factor XIIIa immunostaining,"[1]; knee articular cartilage and meniscal cartilage slices, TGFβ 10 ng/ml, IL-1β 1 ng/ml",induced increased tTGase and Factor XIIIa immunostaining
same,Factor XIIIa expression,[1]; knee articular cartilage,up-regulated
same,tTGase expression,[1]; knee articular cartilage,up-regulated tTGase expression
same,TGase activity under mineralizing nonadherent conditions,[2],induced significant increases in TGase activity
